# Source: US20240124408A1 (Sanofi, priority 2020, published 2024)
# pEC50: −log10 of the molar value.
# Assays:
# [1] = biological target: T1, pig TRPM8 (Sus scrofa, UniProt F1SM15); experiment: In vitro pig TRPM8 fluorescence calcium flux assay (recombinant CHO cells, Fluo4-AM, FDSS6000); assay type: cell-based; settings: recombinant CHO cells expressing pig TRPM8; menthol-related EC50, normalized to 100 μM menthol
# T1 construct: expressed in transfected cells; host or cells: CHO (pcDNA5/FRT/TO vector; hygromycin B and blasticidin selection)
# Description: (§1) In Vitro Pig and Human TRPM8 Fluorescence Calcium Flux Assays
# (§2) For functional expression of TRPM8, the full-length cDNA encoding human (NM_024080) and pig (XM_001927892.1) TRPM8 sequences were subcloned into p658 and pcDNA5/FRT/TO mammalian expression vectors, respectively. Engineered recombinant CHO cell lines expressing human or pig TRPM8 were generated. Culture media was Ham-F12 with 10% FCS for both lines, and for the pig cell line only 400 μg/ml hygromycin B and 30 μg/mL blasticidin were added as selection antibiotics (all reagents were obtained from Invitrogen, Fisher Scientific). Cells were grown in culture flasks up to 80% confluence where they were harvested using accutase (Sigma, MO, USA) to detach the cells by enzymatic dissociation and either seeded directly into assay plates or cryopreserved for future use.
# (§3) For calcium flux assays, cells were plated into clear base poly-D-lysine coated 384-well plates (BD Biosciences, NJ USA) at a density of 15,000 cells per well in appropriate culture medium and grown overnight. The following day, all medium was removed then the cells were incubated with 2 μM of Fluo4-AM Dye (Molecular Probes) prepared in complete HBSS assay buffer containing 20 mM HEPES, 0.1% BSA, and 2.5 mM probenecid at room temperature for one hour. Following incubation, plates were inserted into a FDSS6000 instrument (Hamamatsu, Photonics, Japan) instrument, where cells were challenged with compounds of the formula (at varying concentrations) and intracellular calcium was measured kinetically for 3 min after addition.
# (§4) This protocol allowed the determination of an EC50 value, from the sixteen-point dose response data, for each compound of the formula tested. Maximal fluorescence intensity achieved upon addition of 100 μM menthol (stock solution prepared in ethanol from solid, Sigma-Aldrich) was exported from the FDSS and further analyzed using IDBS XLFit 5. Data were normalized to the average 100 μM menthol response (maximum control wells) included in each plate. The dose response curves from the average of wells for each data point were analyzed by using nonlinear regression of sigmoidal dose response (formula 205). Finally, the (menthol-related) EC50 values (Half maximal effective concentration) were calculated with the best-fit dose curve determined by IDBS XLFit 5 software.
# [2] = biological target: T2, human TRPM8 (Homo sapiens, UniProt Q7Z2W7); experiment: In vitro human TRPM8 fluorescence calcium flux assay (recombinant CHO cells, Fluo4-AM, FDSS6000); assay type: cell-based; settings: recombinant CHO cells expressing human TRPM8; menthol-related EC50, normalized to 100 μM menthol
# T2 construct: expressed in transfected cells; host or cells: CHO (p658 mammalian expression vector)
# Description: as §1, §2, §3, §4
# T1 sequence (F1SM15 1-1104): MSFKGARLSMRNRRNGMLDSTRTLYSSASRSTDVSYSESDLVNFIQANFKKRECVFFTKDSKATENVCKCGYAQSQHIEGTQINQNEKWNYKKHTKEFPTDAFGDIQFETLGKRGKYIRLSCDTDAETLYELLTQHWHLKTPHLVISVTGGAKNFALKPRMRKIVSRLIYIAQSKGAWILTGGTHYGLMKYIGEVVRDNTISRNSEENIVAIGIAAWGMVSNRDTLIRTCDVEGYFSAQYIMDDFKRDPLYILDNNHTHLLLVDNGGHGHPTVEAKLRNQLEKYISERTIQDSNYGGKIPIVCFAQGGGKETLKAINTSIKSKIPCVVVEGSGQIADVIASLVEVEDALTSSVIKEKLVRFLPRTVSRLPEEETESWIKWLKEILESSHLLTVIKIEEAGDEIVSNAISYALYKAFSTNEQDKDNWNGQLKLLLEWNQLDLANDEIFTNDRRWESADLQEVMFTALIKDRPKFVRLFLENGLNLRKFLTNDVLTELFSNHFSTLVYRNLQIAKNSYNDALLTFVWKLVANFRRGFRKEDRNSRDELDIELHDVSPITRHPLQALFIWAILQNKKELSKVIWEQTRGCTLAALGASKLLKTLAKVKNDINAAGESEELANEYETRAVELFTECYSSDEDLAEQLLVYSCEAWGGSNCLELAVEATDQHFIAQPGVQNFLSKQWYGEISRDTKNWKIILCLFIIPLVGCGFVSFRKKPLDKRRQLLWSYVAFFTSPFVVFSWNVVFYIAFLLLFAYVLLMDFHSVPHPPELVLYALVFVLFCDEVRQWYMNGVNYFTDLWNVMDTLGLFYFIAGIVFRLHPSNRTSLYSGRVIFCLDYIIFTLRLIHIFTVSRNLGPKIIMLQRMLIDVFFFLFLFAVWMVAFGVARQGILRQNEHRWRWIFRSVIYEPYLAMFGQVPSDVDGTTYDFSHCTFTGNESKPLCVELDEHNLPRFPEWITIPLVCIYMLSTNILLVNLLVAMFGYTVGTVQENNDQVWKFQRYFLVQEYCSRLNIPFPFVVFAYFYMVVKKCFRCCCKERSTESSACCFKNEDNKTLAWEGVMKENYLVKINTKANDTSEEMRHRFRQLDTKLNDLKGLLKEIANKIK
# T2 sequence (Q7Z2W7 whole entry): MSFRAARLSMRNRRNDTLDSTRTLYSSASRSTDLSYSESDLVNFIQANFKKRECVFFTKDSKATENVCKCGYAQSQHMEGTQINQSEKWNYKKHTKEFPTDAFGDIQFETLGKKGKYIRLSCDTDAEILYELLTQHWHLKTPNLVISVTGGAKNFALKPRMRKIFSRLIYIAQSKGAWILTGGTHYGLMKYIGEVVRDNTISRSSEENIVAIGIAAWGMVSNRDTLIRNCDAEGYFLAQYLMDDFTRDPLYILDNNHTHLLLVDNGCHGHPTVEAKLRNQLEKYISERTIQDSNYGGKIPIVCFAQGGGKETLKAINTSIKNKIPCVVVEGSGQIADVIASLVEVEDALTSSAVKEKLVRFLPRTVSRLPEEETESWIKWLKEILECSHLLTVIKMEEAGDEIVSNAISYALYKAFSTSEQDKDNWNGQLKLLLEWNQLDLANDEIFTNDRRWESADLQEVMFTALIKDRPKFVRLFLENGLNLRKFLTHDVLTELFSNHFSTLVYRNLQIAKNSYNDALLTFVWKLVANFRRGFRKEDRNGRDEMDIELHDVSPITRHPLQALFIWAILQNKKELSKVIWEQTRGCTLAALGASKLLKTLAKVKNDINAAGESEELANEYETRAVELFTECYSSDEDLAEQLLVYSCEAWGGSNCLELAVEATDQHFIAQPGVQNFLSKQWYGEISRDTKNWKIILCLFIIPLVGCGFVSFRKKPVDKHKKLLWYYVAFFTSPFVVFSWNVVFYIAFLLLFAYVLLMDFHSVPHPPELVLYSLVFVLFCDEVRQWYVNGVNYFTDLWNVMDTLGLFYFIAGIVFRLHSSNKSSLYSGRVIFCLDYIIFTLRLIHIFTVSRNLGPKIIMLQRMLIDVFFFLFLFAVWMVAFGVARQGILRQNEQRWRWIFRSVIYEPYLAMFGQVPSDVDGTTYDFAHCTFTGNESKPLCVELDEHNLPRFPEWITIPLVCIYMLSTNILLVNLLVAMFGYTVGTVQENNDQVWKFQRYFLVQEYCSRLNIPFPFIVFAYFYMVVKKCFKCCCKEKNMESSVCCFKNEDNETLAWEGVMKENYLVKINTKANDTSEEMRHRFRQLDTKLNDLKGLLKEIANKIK
Compound,pEC50 [1],pEC50 [2]
"Cc1cccc([C@@H](O)CNC(=O)[C@]2(O)C[C@H](C)CC[C@H]2C(C)C)c1 [Example 45, (1S,2S,5R)-1-hydroxy-N-((2R)-hydroxy-2-(m-tolyl)ethyl)-2-isopropyl-5-methylcyclohexane-1-carboxamide]",7.74,7.31
"COC(=O)Cc1ccccc1CCNC(=O)[C@]1(O)C[C@H](C)CC[C@H]1C(C)C [Example 77, methyl 2-(2-(2-((1S,2S,5R)-1-hydroxy-2-isopropyl-5-methylcyclohexane-1-carboxamido)ethyl)phenyl)acetate]",7.03,7.05
"CC(C)[C@@H]1CC[C@@H](C)C[C@@]1(O)C(=O)NCCCc1ccc(O)cc1 [Example 167, (1S,2S,5R)-1-hydroxy-N-[3-(4-hydroxyphenyl)propyl]-2-isopropyl-5-methyl-cyclohexanecarboxamide]",7.04,7.23
"COc1ccc(C(=O)CNC(=O)[C@]2(O)C[C@H](C)CC[C@H]2C(C)C)c(OC)c1 [Example 99, (1S,2S,5R)—N-(2-(2,4-dimethoxyphenyl)-2-oxoethyl)-1-hydroxy-2-isopropyl-5-methylcyclohexane-1-carboxamide]",7.00,6.96
"CC(C)[C@@H]1CC[C@@H](C)C[C@@]1(O)C(=O)NCC(O)c1ccccc1F (stereo partly drawn) [Example 157, (1S,2S,5R)-N-[2-(2-fluorophenyl)-2-hydroxy-ethyl]-1-hydroxy-2-isopropyl-5-methyl-cyclohexanecarboxamide]",8.33,8.08
"CC(C)[C@@H]1CC[C@@H](C)C[C@@]1(O)C(=O)NCC1OC(=O)c2ccccc21 (mixture of isomers) [Example 18, (1S,2S,5R)-1-hydroxy-2-isopropyl-5-methyl-N-(((1RS)-3-oxo-1,3-dihydroisobenzofuran-1-yl)methyl) cyclohexane-1-carboxamide]",6.62,6.12
"CC(C)[C@@H]1CC[C@@H](C)C[C@@]1(O)C(=O)NCC1CCOc2ccccc21 (stereo partly drawn) [Example 103, (1S,2S,5R)—N-(chroman-4-ylmethyl)-1-hydroxy-2-isopropyl-5-methylcyclohexane-1-carboxamide]",7.83,7.73
"CC(C)[C@@H]1CC[C@@H](C)C[C@@]1(O)C(=O)NCC1(O)CCc2ccccc21 (single isomer, unassigned) [Example 175]",6.27,7.37
"CC(C)[C@@H]1CC[C@@H](C)C[C@@]1(O)C(=O)NCC1OCCc2ccccc21 (single isomer, unassigned) [Example 97]",7.53,7.95
"COC(=O)CCOc1ccccc1CCNC(=O)[C@]1(O)C[C@H](C)CC[C@H]1C(C)C [Example 75, methyl 3-(2-(2-((1S,2S,5R)-1-hydroxy-2-isopropyl-5-methylcyclohexane-1-carboxamido)ethyl)phenoxy)propanoate]",6.96,7.08
"COc1ccc(OC)c(CCNC(=O)[C@]2(O)C[C@H](C)CC[C@H]2C(C)C)c1 [Example 128, (1S,2S,5R)-N-[2-(2,5-dimethoxyphenyl)ethyl]-1-hydroxy-2-isopropyl-5-methyl-cyclohexanecarboxamide]",6.67,6.52
"COC[C@H](NC(=O)[C@]1(O)C[C@H](C)CC[C@H]1C(C)C)C(O)c1ccccc1 (stereo in doubt) [Example 122, (1S,2S,5R)-1-hydroxy-N-[(1S,2S)-2-hydroxy-1-(methoxymethyl)-2-phenyl-ethyl]-2-isopropyl-5-methyl-cyclohexanecarboxamide]",6.13,5.12
"Cc1oc(=O)oc1COC(=O)c1cccc(CCNC(=O)[C@]2(O)C[C@H](C)CC[C@H]2C(C)C)c1 [Example 29, (5-methyl-2-oxo-1,3-dioxol-4-yl)methyl 3-(2-((1S,2S,5R)-1-hydroxy-2-isopropyl-5-methylcyclohexane-1-carboxamido)ethy) benzoate]",6.66,6.68
"CC(C)[C@@H]1CC[C@@H](C)C[C@@]1(O)C(=O)NCCc1ccc(O)cc1O [Example 173, (1S,2S,5R)-N-[2-(2,4-dihydroxyphenyl)ethyl]-1-hydroxy-2-isopropyl-5-methyl-cyclohexanecarboxamide]",7.66,7.61
"Cc1cccc(C(=O)CNC(=O)[C@]2(O)C[C@H](C)CC[C@H]2C(C)C)c1 [Example 141, (1S,2S,5R)-1-hydroxy-2-isopropyl-5-methyl-N-[2-(m-tolyl)-2-oxo-ethyl]cyclohexanecarboxamide]",8.92,8.57
"COc1cc(CCNC(=O)[C@]2(O)C[C@H](C)CC[C@H]2C(C)C)cc(OC)c1O [Example 130, (1S,2S,5R)-1-hydroxy-N-[2-(4-hydroxy-3,5-dimethoxy-phenyl)ethyl]-2-isopropyl-5-methyl-cyclohexanecarboxamide]",6.73,6.36
"COc1ccc(CCNC(=O)[C@]2(O)C[C@H](C)CC[C@H]2C(C)C)cc1O [Example 126, (1S,2S,5R)-1-hydroxy-N-[2-(3-hydroxy-4-methoxy-phenyl)ethyl]-2-isopropyl-5-methyl-cyclohexanecarboxamide]",7.59,7.03
"CC(C)[C@@H]1CC[C@@H](C)C[C@@]1(O)C(=O)NCC1(c2cccc(COC3CCCCO3)c2)COC1 (stereo partly drawn) [Example 101, (1S,2S,5R)-1-hydroxy-2-isopropyl-5-methyl-N-((3-(3-(((tetrahydro-2H-pyran-2-yl)oxy)methyl)phenyl)oxetan-3-yl)methyl)cyclohexane-1-carboxamide]",6.76,6.42
"CC(C)[C@@H]1CC[C@@H](C)C[C@@]1(O)C(=O)NCC(NC(=O)[C@H](C)N)c1ccccc1 (single isomer, unassigned) [Example 181]",7.21,7.65
"Cc1cccnc1CCNC(=O)[C@]1(O)C[C@H](C)CC[C@H]1C(C)C [Example 127, (1S,2S,5R)-1-hydroxy-2-isopropyl-5-methyl-N-[2-(3-methyl-2-pyridyl)ethyl]cyclohexanecarboxamide]",6.82,6.44
"CC(C)[C@@H]1CC[C@@H](C)C[C@@]1(O)C(=O)NCC1OC(=O)c2ccccc21 (mixture of isomers) [Example 17, (1S,2S,5R)-1-hydroxy-2-isopropyl-5-methyl-N-(((1RS)-3-oxo-1,3-dihydroisobenzofuran-1-yl)methyl) cyclohexane-1-carboxamide]",6.72,6.39
"CC(C)[C@@H]1CC[C@@H](C)C[C@@]1(O)C(=O)NC1CCC(F)(F)CC1 [Example 147, (1S,2S,5R)-N-(4,4-difluorocyclohexyl)-1-hydroxy-2-isopropyl-5-methyl-cyclohexanecarboxamide]",6.05,5.94
"COc1ccc2c(c1)CCC2CNC(=O)[C@]1(O)C[C@H](C)CC[C@H]1C(C)C (stereo partly drawn) [Example 152, (1S,2S,5R)-1-hydroxy-2-isopropyl-N-[(5-methoxyindan-1-yl)methyl]-5-methyl-cyclohexanecarboxamide]",7.33,6.51
"COc1cc(CCNC(=O)[C@]2(O)C[C@H](C)CC[C@H]2C(C)C)ccc1O [Example 114, (1S,2S,5R)-1-hydroxy-N-[2-(4-hydroxy-3-methoxy-phenyl)ethyl]-2-isopropyl-5-methyl-cyclohexanecarboxamide]",7.55,7.22
"CC(C)[C@@H]1CC[C@@H](C)C[C@@]1(O)C(=O)NC[C@H](O)c1ccccc1 [Example 178, (1S,2S,5R)-1-hydroxy-N-((2R)-2-hydroxy-2-phenylethyl)-2-isopropyl-5-methylcyclohexane-1-carboxamide]",6.45,5.90
"CC(C)[C@@H]1CC[C@@H](C)C[C@@]1(O)C(=O)N[C@@H]1CCc2ccc(O)cc2C1 [Example 171, (1S,2S,5R)-1-hydroxy-N-[(2R)-7-hydroxytetralin-2-yl]-2-isopropyl-5-methyl-cyclohexanecarboxamide]",8.21,8.49
"CC(C)[C@@H]1CC[C@@H](C)C[C@@]1(O)C(=O)NCC1(O)CCc2c(Cl)cccc21 (stereo partly drawn) [Example 144, (1S,2S,5R)-N-[(4-chloro-1-hydroxy-indan-1-yl)methyl]-1-hydroxy-2-isopropyl-5-methyl-cyclohexanecarboxamide]",8.74,8.32
"CC(C)[C@@H]1CC[C@@H](C)C[C@@]1(O)C(=O)NCC(=O)c1ccc(Cl)cc1 [Example 134, (1S,2S,5R)-N-[2-(4-chlorophenyl)-2-oxo-ethyl]-1-hydroxy-2-isopropyl-5-methyl-cyclohexanecarboxamide]",8.89,8.47
